Laboratory results taken from US8748407B2 (The Research Foundation for the State University of New York, priority 2010, dated 2014).

Assays:
GluK1 = assay: Whole-cell current recording, kainate receptor GluK1; assay type: cell-based
From the text: (§1) The original cDNAs in pBlueScript encoding rat GluA1, 2 and 3 AMPA receptors and GluK2 kainate receptor were kindly provided by Steve Heinemann. The GluA4 DNA plasmid was kindly provided by Peter Seeburg. The GluK1 plasmid was kindly provided by Geoffrey Swanson. The cDNAs of all three NMDA receptor subunits were gifts from John Woodward. All DNA plasmids were propagated using Escherichia coli host (DH5α) and purified using QIAGEN DNA purification kits.
(§2) All of the receptors were transiently expressed in HEK-293S cell. HEK-293S cells were maintained in Dulbecco's modified Eagle's medium (DMEM) supplemented with 10% fetal bovine serum and 1% penicillin in a 37° C., 5% CO2, humidified incubator. Receptors were transiently transfected by using calcium phosphate or lipofectamine 2000 (Invitrogen). The DNA plasmids encoding green fluorescent protein (GFP) and T-antigen (TAg) were cotransfected in HEK-293 S cells. […]
(§3) The procedure for whole-cell current recording to assay the inhibitory property of an RNA aptamer is known to those of skill in the art and has been previously described^7. […] The whole-cell current was recorded using an Axopatch-200B amplifier at a cutoff frequency of 2-20 kHz by a built-in, eight-pole Bessel filter and digitized at 5-50 kHz sampling frequency using a Digidata 1322A from Axon Instruments (Molecular Devices, Sunnyvale, Calif.). […]

GluK2 = molecular target: T1, GluK2 (Rattus norvegicus, UniProt P42260); assay: Whole-cell current recording, kainate receptor GluK2; assay type: cell-based
T1 construct: expressed in transfected cells; host or cells: HEK-293S
T1 sequence (P42260 32-908): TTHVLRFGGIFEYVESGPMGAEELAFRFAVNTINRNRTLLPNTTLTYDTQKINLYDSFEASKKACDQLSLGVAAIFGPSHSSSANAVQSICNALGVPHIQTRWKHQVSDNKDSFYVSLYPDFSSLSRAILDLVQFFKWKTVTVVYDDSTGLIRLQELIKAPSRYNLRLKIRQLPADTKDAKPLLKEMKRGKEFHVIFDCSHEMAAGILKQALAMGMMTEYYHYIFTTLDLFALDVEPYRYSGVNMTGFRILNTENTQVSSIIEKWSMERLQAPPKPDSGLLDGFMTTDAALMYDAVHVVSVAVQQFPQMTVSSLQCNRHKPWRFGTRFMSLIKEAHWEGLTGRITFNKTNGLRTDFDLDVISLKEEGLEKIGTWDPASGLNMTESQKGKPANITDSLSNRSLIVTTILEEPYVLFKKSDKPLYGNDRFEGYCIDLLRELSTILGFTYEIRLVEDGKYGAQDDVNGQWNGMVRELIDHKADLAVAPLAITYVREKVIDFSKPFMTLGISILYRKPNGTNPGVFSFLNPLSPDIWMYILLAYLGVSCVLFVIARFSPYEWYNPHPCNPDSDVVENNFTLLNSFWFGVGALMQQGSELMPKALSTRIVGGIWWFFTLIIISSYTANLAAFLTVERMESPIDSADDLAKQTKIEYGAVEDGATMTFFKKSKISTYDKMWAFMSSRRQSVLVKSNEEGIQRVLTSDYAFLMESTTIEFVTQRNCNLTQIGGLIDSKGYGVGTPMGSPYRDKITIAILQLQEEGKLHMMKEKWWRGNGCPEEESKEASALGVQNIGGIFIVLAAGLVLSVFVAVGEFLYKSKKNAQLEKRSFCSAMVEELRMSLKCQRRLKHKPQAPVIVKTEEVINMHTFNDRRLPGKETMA
From the text: as §1, §2, §3

GluA2Qflip [1] = molecular target: T2, GluA2Qflip (Rattus norvegicus, UniProt P19491); assay: Homologous competitive binding assay (32P-labeled aptamer, membrane-bound receptor)
T2 construct: expressed in transfected cells; host or cells: HEK-293S
T2 sequence (P19491 22-883 isoform P19491-2): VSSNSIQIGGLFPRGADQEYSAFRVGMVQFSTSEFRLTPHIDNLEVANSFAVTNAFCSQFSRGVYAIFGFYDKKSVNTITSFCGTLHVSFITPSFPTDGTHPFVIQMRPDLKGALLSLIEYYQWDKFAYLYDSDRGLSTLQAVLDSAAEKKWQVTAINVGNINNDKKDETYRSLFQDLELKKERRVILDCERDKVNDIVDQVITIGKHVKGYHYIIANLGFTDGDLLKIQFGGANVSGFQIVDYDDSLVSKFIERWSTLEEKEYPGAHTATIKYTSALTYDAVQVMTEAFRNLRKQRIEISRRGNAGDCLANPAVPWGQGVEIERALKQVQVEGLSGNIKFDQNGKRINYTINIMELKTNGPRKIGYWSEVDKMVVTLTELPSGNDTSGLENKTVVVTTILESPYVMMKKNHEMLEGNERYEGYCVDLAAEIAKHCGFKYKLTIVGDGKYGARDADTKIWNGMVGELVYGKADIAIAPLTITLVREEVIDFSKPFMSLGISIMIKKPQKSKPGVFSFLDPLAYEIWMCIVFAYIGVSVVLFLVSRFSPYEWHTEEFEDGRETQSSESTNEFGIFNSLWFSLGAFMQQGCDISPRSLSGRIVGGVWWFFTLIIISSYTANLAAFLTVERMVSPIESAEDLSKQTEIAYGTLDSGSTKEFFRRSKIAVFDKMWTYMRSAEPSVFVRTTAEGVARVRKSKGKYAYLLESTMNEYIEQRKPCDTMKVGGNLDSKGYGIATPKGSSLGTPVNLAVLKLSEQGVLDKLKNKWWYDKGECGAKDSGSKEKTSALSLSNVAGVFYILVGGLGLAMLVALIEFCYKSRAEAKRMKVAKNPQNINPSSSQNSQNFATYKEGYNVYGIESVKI
Description: Whether AG56 bound to the close-channel state or conformation, and if so, the affinity of binding were assayed by homologous competitive binding assay using ^32P-label^4. To do this, RNA was first dephosphorylated by using calf intestinal phosphatase (CIP), prior to the 5′-end ^32P-labeling^5. Labeled RNA was passed through a NucAway spin column (Applied Biosystem) to remove excess γ-^32P-ATP. Then, 1 μl of 10 nM of ^32P-labeled aptamer was mixed with 2 μg of yeast tRNA (Sigma) and a series of concentrations of unlabeled (cold) aptamer whose concentrations varied from 0-400 nM in the final reaction mix. The mixed aptamer sample was incubated first at 70° C. for 10 min and then at room temperature for 20 min, before mixed with the receptor. For receptor preparation, […] of the membrane-bound receptor was resuspended in 1× extracellular buffer with and without 1 mM of kainate (which corresponded to the open-channel state and the closed-channel state, respectively; for the latter, it corresponded to precisely the unliganded, closed-channel state). The final concentration for the receptor and for the hot aptamer, after mixing, was 0.4 nM and 0.1 nM, respectively. The mixture was incubated at 22° C. for 1 hour for binding. […] The radioactivity on the filter was quantified in a scintillation counter (Beckman LS6500). […]

GluA4 = molecular target: T3, GluA4 (Rattus norvegicus, UniProt P19493); assay: Whole-cell current recording, GluA4; assay type: cell-based
T3 construct: expressed in transfected cells; host or cells: HEK-293S
T3 sequence (P19493 21-902): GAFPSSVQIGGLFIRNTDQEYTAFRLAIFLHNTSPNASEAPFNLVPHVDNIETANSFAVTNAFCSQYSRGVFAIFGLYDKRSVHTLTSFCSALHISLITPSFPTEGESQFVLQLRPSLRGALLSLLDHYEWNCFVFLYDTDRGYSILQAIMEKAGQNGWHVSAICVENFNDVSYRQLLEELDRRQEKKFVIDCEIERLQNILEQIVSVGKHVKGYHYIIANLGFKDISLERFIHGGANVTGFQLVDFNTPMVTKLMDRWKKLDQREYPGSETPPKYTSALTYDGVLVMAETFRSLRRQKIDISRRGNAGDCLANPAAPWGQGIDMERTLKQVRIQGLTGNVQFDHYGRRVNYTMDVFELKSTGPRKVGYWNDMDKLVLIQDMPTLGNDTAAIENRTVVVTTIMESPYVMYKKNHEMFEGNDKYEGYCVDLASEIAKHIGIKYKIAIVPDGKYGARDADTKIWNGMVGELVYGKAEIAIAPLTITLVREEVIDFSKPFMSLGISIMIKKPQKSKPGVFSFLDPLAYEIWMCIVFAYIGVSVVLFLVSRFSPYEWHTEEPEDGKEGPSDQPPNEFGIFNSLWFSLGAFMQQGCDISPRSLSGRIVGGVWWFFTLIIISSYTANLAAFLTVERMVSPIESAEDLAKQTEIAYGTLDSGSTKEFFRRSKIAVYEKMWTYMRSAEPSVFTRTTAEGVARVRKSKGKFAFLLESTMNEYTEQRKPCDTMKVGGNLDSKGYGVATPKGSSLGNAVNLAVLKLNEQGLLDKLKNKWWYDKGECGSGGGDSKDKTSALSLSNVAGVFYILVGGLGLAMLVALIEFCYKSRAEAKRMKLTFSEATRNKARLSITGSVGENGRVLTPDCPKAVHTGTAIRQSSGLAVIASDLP
From the text: as §1
(§4) All of the receptors were transiently expressed in HEK-293S cell. HEK-293S cells were maintained in Dulbecco's modified Eagle's medium (DMEM) supplemented with 10% fetal bovine serum and 1% penicillin in a 37° C., 5% CO2, humidified incubator. Receptors were transiently transfected by using calcium phosphate or lipofectamine 2000 (Invitrogen). The DNA plasmids encoding green fluorescent protein (GFP) and T-antigen (TAg) were cotransfected in HEK-293 S cells. GFP was used as a transfection marker for cell recording, and TAg was cotransfected to potentiate the receptor expression at the single-cell level^6. Transfected cells were allowed to grow for 48 hour before they were used for recording.
(§5) The procedure for whole-cell current recording to assay the inhibitory property of an RNA aptamer is known to those of skill in the art and has been previously described^7. […] The extracellular buffer composition is described above (see “Receptor Preparation”). For recording of the NMDA channels, the intracellualr solution contained (in mM) 140 CsCl, 1 MgCl2, 0.1 EGTA, and 10 HEPES (pH 7.2 adjusted by […]), while the extracellular solution contained (in mM) 135 NaCl, 5.4 KCl, 1.8 CaCl2, 10 glucose and 5 HEPES (pH 7.2 adjusted by NaOH). In the extracellular buffer, 2 μM of glycine was added (glycine was the co-agonist of NMDA receptor)^2. All reagents including aptamer were dissolved in the corresponding extracellular buffer and used. […] The whole-cell current was recorded using an Axopatch-200B amplifier at a cutoff frequency of 2-20 kHz by a built-in, eight-pole Bessel filter and digitized at 5-50 kHz sampling frequency using a Digidata 1322A from Axon Instruments (Molecular Devices, Sunnyvale, Calif.). The pClamp 8 software (Molecular Devices) was used for data acquisition. All whole-cell recordings were at −60 mV and 22° C.

GluN1a/2A = molecular target: T4, GluN1a/2A (Rattus norvegicus, UniProt P35439+Q00959); assay: Whole-cell current recording, NMDA receptor GluN1a/2A; assay type: cell-based
T4 construct: expressed in transfected cells; host or cells: HEK-293S
T4 sequence (Q00959 23-1464, other chains not shown): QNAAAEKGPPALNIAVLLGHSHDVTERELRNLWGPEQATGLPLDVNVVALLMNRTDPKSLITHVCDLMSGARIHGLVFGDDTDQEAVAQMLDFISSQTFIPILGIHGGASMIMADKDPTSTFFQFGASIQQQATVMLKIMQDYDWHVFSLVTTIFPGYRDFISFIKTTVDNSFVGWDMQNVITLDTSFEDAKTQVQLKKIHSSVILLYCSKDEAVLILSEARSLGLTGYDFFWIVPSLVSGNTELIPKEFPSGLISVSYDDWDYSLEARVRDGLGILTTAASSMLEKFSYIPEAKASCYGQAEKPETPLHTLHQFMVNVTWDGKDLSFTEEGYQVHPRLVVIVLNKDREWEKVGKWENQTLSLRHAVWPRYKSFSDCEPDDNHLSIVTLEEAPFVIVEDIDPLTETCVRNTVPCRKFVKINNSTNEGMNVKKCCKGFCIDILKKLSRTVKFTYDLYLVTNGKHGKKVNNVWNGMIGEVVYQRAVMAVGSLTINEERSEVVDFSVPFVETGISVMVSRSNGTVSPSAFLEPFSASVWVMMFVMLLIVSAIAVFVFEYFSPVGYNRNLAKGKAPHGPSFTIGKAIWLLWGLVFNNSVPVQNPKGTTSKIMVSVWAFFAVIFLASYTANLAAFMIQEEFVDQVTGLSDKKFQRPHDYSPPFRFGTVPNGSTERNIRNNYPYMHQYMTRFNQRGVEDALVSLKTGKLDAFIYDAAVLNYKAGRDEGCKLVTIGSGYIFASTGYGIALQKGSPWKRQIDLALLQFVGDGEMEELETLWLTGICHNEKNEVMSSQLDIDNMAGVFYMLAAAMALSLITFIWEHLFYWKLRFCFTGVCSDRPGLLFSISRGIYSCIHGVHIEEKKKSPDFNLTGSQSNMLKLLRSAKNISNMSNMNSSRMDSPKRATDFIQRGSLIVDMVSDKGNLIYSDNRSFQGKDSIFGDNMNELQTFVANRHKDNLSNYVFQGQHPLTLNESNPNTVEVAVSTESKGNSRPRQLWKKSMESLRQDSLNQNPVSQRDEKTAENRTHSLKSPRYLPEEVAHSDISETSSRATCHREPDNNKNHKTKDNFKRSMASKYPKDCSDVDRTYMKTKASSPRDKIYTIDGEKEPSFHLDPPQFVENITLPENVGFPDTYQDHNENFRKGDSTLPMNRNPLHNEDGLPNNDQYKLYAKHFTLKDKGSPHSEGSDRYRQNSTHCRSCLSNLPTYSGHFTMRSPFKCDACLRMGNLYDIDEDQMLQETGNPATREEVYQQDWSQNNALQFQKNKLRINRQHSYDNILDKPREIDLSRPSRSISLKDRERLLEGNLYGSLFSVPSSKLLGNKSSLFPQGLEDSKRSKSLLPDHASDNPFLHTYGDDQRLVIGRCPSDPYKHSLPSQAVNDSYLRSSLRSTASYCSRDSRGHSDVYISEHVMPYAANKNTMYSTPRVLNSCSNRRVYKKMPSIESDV
From the text: as §1, §2, §3

GluA2Qflip [2] = molecular target: T2, GluA2Qflip; assay: Whole-cell current recording, GluA2Qflip in HEK-293 cells; assay type: cell-based
From the text: as §1, §4, §5
To deliver AG56 to a HEK-293 cell, a “Ψ”-shaped flow device was used. […] In all experiments reported in this study, a 6-second preincubation flow protocol was used for full aptamer preincubation. […] The corrected current amplitude was used for data analysis.
Determination of KI,app by the ratio of the current amplitude in the absence and presence of inhibitor or A/A(I)—see FIG. 5 in the text. Equ. 10a and 10b were derived based on one inhibitor binding to the receptor. KI, app is the apparent inhibition constant for the inhibitor; other terms have been defined previously.
Under this condition, the inhibition constant for the closed-channel conformation was determined from the ratio of the amplitude according to equ. 10a and 10b. Likewise, at a saturating ligand concentration (i.e., L>>K1), the majority of the receptors were in the open-channel state. Consequently, the inhibition constant associated with the open-channel conformation was measured. The basis of using the two ligand concentrations that corresponded to ˜4% and ˜96% fraction of the open-channel receptor form^7 to determine the corresponding inhibition constant was a putative difference in inhibition constant between the closed-channel and the open-channel conformation. At those low and high ligand concentrations^7, the apparent inhibition constants obtained were considered pertinent to the closed-channel and the open-channel conformations, respectively. Examples of using the current amplitude to determine the inhibition constant for an inhibitor include our previous study of two 2,3-benzodiazepine derivatives with the GluA2Qflip AMPA receptor^15.

GluA1 = molecular target: T5, GluA1 (Rattus norvegicus, UniProt P19490); assay: Whole-cell current recording, GluA1; assay type: cell-based
T5 construct: expressed in transfected cells; host or cells: HEK-293S
T5 sequence (P19490 19-907): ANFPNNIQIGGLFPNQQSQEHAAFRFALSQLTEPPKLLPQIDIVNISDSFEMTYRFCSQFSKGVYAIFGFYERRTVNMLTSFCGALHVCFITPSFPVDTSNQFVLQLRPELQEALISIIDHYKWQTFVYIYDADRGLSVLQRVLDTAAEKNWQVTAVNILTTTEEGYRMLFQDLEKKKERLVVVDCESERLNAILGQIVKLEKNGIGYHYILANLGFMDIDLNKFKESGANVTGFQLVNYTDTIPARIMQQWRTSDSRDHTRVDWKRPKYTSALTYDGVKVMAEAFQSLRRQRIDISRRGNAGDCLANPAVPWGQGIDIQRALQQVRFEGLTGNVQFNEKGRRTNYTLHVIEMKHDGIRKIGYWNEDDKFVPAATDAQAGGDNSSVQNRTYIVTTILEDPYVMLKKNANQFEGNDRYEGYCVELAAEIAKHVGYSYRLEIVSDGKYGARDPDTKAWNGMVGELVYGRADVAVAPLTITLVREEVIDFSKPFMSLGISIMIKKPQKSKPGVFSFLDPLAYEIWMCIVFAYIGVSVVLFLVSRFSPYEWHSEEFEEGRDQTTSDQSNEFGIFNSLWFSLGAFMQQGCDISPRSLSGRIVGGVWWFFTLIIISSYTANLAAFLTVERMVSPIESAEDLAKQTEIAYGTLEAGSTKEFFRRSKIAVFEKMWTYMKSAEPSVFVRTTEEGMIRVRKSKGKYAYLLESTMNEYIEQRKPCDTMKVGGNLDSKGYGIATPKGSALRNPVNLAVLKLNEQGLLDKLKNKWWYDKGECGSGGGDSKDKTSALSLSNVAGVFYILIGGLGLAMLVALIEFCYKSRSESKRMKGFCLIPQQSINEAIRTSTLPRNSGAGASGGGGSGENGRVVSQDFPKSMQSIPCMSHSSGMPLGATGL
From the text: as §1, §2, §3

**Q.** With “AG56: 56-nucleotide truncated version of AG1407, RNA aptamer (GGGAGAUUGUGAAGCGUAGGCUCGAGUUUGUCCCGCGAGCCAAAGAUUCCAGACCC; RNA, backbone not given here)” as the substance, how does the “effect on kainate receptor channel” value (GluK1) read?
**A.** Its value is “did not affect”.

**Q.** And the “effect on kainate receptor channel” value (GluK2)?
**A.** The value was “did not affect”.

**Q.** And the Kd (GluA2Qflip [1]; open-channel conformation (1 mM kainate))?
**A.** The Kd was 80 ± 23 nM.

**Q.** What about the Kd (GluA2Qflip [1]; unliganded, closed-channel conformation (without kainate)) of the same substance?
**A.** The Kd was 68 ± 40 nM.

**Q.** What about the “A/A(I)” value (GluA4; 0.5 μM AG56, 3 mM glutamate, open-channel GluA4) of the same substance?
**A.** The value was “not significantly larger than 1.0”.

**Q.** What about the “A/A(I) ratio” value (GluA4; 1 μM AG56, 3 mM glutamate, open-channel GluA4) of the same substance?
**A.** The value was 1.2.

**Q.** What about the “inhibition of the closed-channel conformation” value (GluA4; GluA4) of the same substance?
**A.** Its value is “no inhibitory effect”.

**Q.** What about the “inhibition of the open-channel conformation” value (GluA4; GluA4) of the same substance?
**A.** The value was “weak”.

**Q.** What about the “effect on NMDA receptor channel” value (GluN1a/2A) of the same substance?
**A.** Its value is “did not affect”.

**Q.** And the “inhibitory function of shorter versions of AG1407, based on A/A(I)” value (GluA2Qflip [2]; GluA2Qflip)?
**A.** Its value is “functional sequence”.

**Q.** And the “inhibition of the open-channel conformation” value (GluA2Qflip [2]; GluA2Qflip, high glutamate concentration)?
**A.** Its value is “selectively inhibited the open-channel”.

**Q.** What about the “inhibition of the closed-channel conformation” value (GluA2Qflip [2]; GluA2Qflip, low glutamate concentration) of the same substance?
**A.** The value was “did not inhibit”.

**Q.** What about the Ki (GluA2Qflip [2]; open-channel conformation of GluA2Qflip, 3 mM glutamate, read-out: inhibition constant) of the same substance?
**A.** Its Ki is 950 ± 200 nM.

**Q.** What about the “inhibition of the closed-channel conformation” value (GluA1) of the same substance?
**A.** The value was “no inhibitory effect”.

**Q.** And the “inhibition of the open-channel conformation” value (GluA1)?
**A.** Its value is “similarly inhibited the open-channel conformation”.
